Columns and labels:
ETB receptor = target: T1, ETB receptor (Homo sapiens, UniProt P24530); assay: Inhibition of Endothelin Binding to Human Placenta Membranes (ETB receptor); details: inhibition of 50% of the specific binding of 125I-endothelin (20 pM)
T1 construct: Human placenta is homogenized in 5 mM Tris buffer; from tissue; host or cells: human placenta membranes
T1 sequence (P24530 27-442): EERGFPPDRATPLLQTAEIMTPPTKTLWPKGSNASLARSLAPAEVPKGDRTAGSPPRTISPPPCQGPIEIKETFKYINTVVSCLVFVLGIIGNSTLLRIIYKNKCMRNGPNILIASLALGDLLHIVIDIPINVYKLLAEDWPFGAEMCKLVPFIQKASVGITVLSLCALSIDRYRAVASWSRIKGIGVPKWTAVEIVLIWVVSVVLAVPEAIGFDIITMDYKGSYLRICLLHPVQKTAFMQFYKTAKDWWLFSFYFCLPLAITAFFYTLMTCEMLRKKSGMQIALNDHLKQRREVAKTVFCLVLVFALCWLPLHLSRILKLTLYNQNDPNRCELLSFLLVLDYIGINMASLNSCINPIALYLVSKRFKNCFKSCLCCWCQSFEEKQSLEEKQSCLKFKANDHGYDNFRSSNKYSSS
Procedure: II: Inhibition of Endothelin Binding to Human Placenta Membranes (ETB receptor) (see. Life Sci 44:1429 (1989))
Human placenta is homogenized in 5 mM Tris buffer, pH 7.4, which contains 1 mM MgCl2 and 250 mM sucrose. The homogenizate is centrifuged at 4° C. and 3000 g for 15 minutes, the supernatant containing the plasma membrane fraction is centrifuged at 72000 g for 30 minutes and the precipitate is washed with 75 mM Tris buffer, pH 7.4, which contains 25 mM MgCl2. Thereafter, precipitate obtained from in each case 10 g of original tissue is suspended in 1 ml of 75 mM Tris buffer, pH 7.4, containing 25 mM MgCl2 and 250 mM sucrose, and freeze-dried at -20° C. in 1 ml aliquots.
(§1) For the binding assay, the freeze-dried membrane preparations are thawed and, after centrifugation at 20° C. and 25000 g for 10 minutes, re-suspended in assay buffer (50 mM Tris buffer, pH 7.4, containing 25 mM MnCl2, 1 mM EDTA and 0.5% bovine serum albumin). 100 μl of this membrane suspension containing 35 μg of protein are incubated with […] ^125 I-endothelin (specific activity 2200 Ci/mMol) in assay buffer (25000 cpm, final concentration 20 pM) and 100 μl of assay buffer containing varying concentrations of test compound. The incubation is carried out at 20° C. for 2 hours or at 4° C. for 24 hours. The separation of free and membrane-bound radio-ligands is carried out by filtration over a glass fibre filter.
(§2) The inhibitory activity on ETA and ETB receptors of compounds of formula I determined in these test procedures is given in Table 1 as the IC50, i.e. as the concentration [μM] which is required to inhibit 50% of the specific binding of ^125 I-endothelin.

human ETA receptors = target: T2, human ETA receptors (Homo sapiens, UniProt P25101); assay: Inhibition of Endothelin Binding to Recombinant ETA Receptors; details: inhibition of 50% of the specific binding of 125I-endothelin (20 pM), baculovirus-insect cell membranes
T2 construct: made in house
T2 sequence (P25101 21-427): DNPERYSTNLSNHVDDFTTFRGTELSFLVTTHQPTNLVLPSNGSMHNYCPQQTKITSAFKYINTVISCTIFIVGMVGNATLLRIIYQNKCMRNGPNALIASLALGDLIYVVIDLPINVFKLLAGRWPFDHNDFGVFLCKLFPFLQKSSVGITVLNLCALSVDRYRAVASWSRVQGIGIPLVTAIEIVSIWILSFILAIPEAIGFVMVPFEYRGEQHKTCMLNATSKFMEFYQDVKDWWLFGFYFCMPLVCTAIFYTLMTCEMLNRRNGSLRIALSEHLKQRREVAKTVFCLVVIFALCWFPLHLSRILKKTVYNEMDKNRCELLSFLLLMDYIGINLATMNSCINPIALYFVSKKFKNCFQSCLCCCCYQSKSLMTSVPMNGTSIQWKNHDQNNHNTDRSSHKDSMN
Procedure: I: Inhibition of Endothelin Binding to Recombinant ETA Receptors
A cDNA coding for human ETA receptors of human placenta was cloned (M. Adachi, Y.-Y. Yang, Y. Furuichi and C. Miyamoto, BBRC 180, 1265-1272) and expressed in the baculovirus-insect cell system. Baculovirus-infected insect cells from a 23 l fermenter are centrifuged off (3000×g, 15 minutes, 4° C.) 60 hours after the infection, re-suspended in Tris buffer (5 mM, pH 7.4, 1 mM MgCl2) and again centrifuged. After a further re-suspension and centrifugation the cells are suspended in 800 ml of the same buffer and […] at -120° C. The cells disintegrate when the suspension in this hypotonic buffer mixture is thawed. After a repeated freeze-drying/thawing cycle the suspension is homogenized and centrifuged (25000×g, 15 minutes, 4° C.). After suspension in Tris buffer (75 mM, pH 7.4, 25 mM MgCl2, 250 mM saccharose) 1 ml aliquots (protein content about 3.5 mg/ml) are stored at -85° C.
as §1, with “5” for “35”, “with 50” for “with”
as §2

Isolated Rat Aorta Rings = assay: Inhibition of Endothelin-Induced Contractions in Isolated Rat Aorta Rings; assay type: cell-based, rat (Wistar-Kyoto); details: for Kb: Rattus norvegicus, Table 2, text calls these the pA2 values, endothelin-1 contraction, endothelium removed, 37° C, 10 min preincubation, read-out: Dosage ratio (switch to the right) (converted)
Procedure: III. Inhibition of Endothelin-Induced Contractions in Isolated Rat Aorta Rings
Rings with a length of 5 mm were cut out from the thorax aorta of adult Wistar-Kyoto rats. The endothelium was removed by lightly rubbing the internal surface. Each ring was immersed at 37° C. in 10 ml of Krebs-Henseleit solution in an isolated bath while gassing with 95% O2 and 5% CO2. The isometric stretching of the rings was measured. The rings were stretched to a pretension of 3 g. After incubation for 10 minutes with the test compound or vehicle cumulative dosages of endothelin-1 were added. The activity of the test compound was ascertained by the observed shift to the right of the dosage-activity curve of endothelin-1 in the presence of different concentrations of antagonist. This shift to the right (or "dose ratio", DR) corresponds to the quotient from the EC50 values of endothelin-1 in the presence and in the absence of antagonist, with the EC50 value denoting the endothelin concentration required for a half-maximum contraction.
The corresponding PA2 value, which is a measure of the activity of the test compound, was calculated using a computer programme according to the following equation from the "dose ratio" DR for each individual dosage-activity curve.
pA2 =log(DR-1)-log(antagonist-concentration)
The EC50 of endothelin in the absence of test compounds is 0.3 nM.

| IC50 (ETB receptor) [nM] | IC50 (human ETA receptors) [nM] | Compound | EC50 (Isolated Rat Aorta Rings; half-maximum contraction, absence of test compounds) [nM] | Kb (Isolated Rat Aorta Rings) [nM] |
| --- | --- | --- | --- | --- |
| 65 | > 100000 | COc1cccc(Oc2c(NS(=O)(=O)c3ccc(C(C)(C)C)cc3)cc(C(=O)Nc3ccccc3)cc2OCCO)c1 [Example 89, 3-(4-tert-butylbenzenesulphonylamino)-5-(2-hydroxy-ethoxy)-4-(3-methoxy-phenoxy)-N-phenyl-benzamide] |  |  |
|  |  | endothelin: endothelin-1, contracting agonist added in cumulative dosages to rat aorta rings [reference compound] | 0.3 |  |
| 15 | > 100000 | COc1cccc(Oc2c(NS(=O)(=O)c3ccc(SC)cc3)cc(C(=O)Nc3ccccc3)cc2OCCO)c1 [Example 105, 3-(2-hydroxy-ethoxy)-4-(3-methoxy-phenoxy)-5-(4-methylsulphanyl-benzenesulphonyl-amino)-N-phenyl-benzamide] |  |  |
| 440 | 10 | COc1ccccc1Oc1c(NS(=O)(=O)c2ccc(C(C)C)cn2)cc(C(=O)N2CCN(C)CC2)cc1OCCOC(=O)Nc1ccccn1 [Example 33, pyridin-2-yl-carbamic acid 2-[3-(5-isopropyl-pyridine-2-sulphonylamino)-2-(2-methoxy-phenoxy)-5-(4-methyl-piperazine-1-carbonyl)-phenoxy]-ethyl ester] |  | 39.8 |
| 850 | 6 | COc1ccccc1Oc1c(NS(=O)(=O)c2ccc(C(C)C)cn2)cc(C(=O)N2CCOCC2)cc1OCCOC(=O)Nc1ccccn1 [Example 31, pyridin-2-yl-carbamicacid 2-[3-(5-isopropyl-pyridine-2-sulphonylamino)-2-(2-methoxy-phenoxy)-5(morpholine-4-carbonyl)-phenoxy]-ethyl ester] |  |  |
| 20 | 86000 | COc1ccc(Cl)c(Oc2c(NS(=O)(=O)c3ccc(C(F)(F)F)cc3)cc(C(=O)Nc3ccccc3)cc2OCCO)c1 [Example 85, 4-(2-chloro-5-methoxy-phenoxy)-3-(2-hydroxy-ethoxy)-N-phenyl-5-(4-trifluoromethyl-benzenesulphonylamino)-benzamide] |  |  |
| 650 | 2 | CCOC(=O)N1CCN(C(=O)c2cc(NS(=O)(=O)c3ccc(C(C)C)cn3)c(Oc3ccccc3OC)c(OCCOC(=O)Nc3ccccn3)c2)CC1 [Example 36, ethyl 4-{3-(5-iso-propyl-pyridine-2-sulphonylamino)-4-(2-methoxy-phenoxy)-5-[2-(pyridin-2-ylcarbamoyloxy)-ethoxy]-benzoyl}-piperazine-1-carboxylate] |  | 6.31 |

From US5962682A, “Aryl- and hetaryl-sulfonamide derivatives, their preparation and their use as endothelin antagonists” (Hoffmann-La Roche Inc., priority 1994, dated 1999)
